US20040106838A1, “Use of ionic liquids to separate diolefins” (NOVA Chemicals (International) S.A., priority 2002, published 2004)
Read-outs that look alike come from different tables or passages of the source.

Legend:
[1] = C5 hydrocarbon solubility in bmim+ BF4− ionic liquid
Experimental: The testing apparatus consisted of a flat-bottomed florence flask with a graduated neck. The flask was charged with 75 mL of bmim^+ BF4^−, the level being recorded. A known quantity of a C5 hydrocarbon was then added to the flask and the flask was sealed. The overall liquid level and the location of the liquid-liquid interfacial meniscus were recorded. The mixture was then agitated to contact the two liquids and the two phases were allowed to separate. The locations of all meniscuses were then recorded. Agitation and phase separation was then repeated until the liquid levels remained unchanged. The volume change of the hydrocarbon phase corresponds to the quantity of hydrocarbon dissolved in the ionic liquid. The testing was conducted at ambient temperature.

[2] = Liquid-liquid extraction of butadiene from mixed C4 by bmim+ BF4− ionic liquid; assay type: physicochemical; conditions: room temperature
From the text: The testing apparatus consists of three sample cylinders (150 cc, 10 cc, and 50 cc) connected by ⅜-inch tubing (in the order listed) with valves allowing for isolation of each cylinder. A gas syringe is used to take C4 samples for GC analysis. Various mixed C4S were used which contained varying quantities of 1,3-butadiene (ranging from 15-85 weight %). The composition range of the non-butadiene fraction of the standards was (in weight %) n-butane 29-33%, 1-butene 20-33%, isobutene 0-36%, trans-2-butene 7-17%, and cis-2-butene 5-17%.
To measure C4 extraction, 40 mL of bmim^+ BF4^− absorbent is loaded into the 150 cc cylinder and the 10 cc and 150 cc cylinders are then evacuated. The 10 cc cylinder is then isolated and charged with mixed C4 liquid. This liquid is then added to the 150 cc cylinder. The 10 cc cylinder is then isolated and a second 10 cc is then added to the and subsequently added to the 150 cc cylinder and the 150 cc cylinder is isolated. The apparatus is then agitated to maximize contact between the C4 and ionic liquid phases within the 150 cc cylinder. Following agitation, the liquid is allowed to sit 12 hours to allow the two liquid phases to separate.
To determine the level and composition of C4 in the ionic liquid, a 10 cc sample of ionic liquid from the 150 cc cylinder is charged into the 10 cc cylinder. The 150 cc cylinder is then isolated and the 10 cc ionic liquid sample is charged to the 50 cc cylinder, which is then isolated. The 50 cc cylinder is then heated and the gas syringe is used to collect C4 gas evolving from the ionic liquid. The collected gas is analyzed by GC.
These pseudo-equilibrium extraction experiments conducted for different butadiene concentrations yielded enhanced concentrations of butadiene in the C4 extracted by the ionic liquid.

[3] = in 1-butyl-3-methylimidazolium tetrafluoroborate (bmim+ BF4−), ambient temperature
[4] = solubility in bmim+ BF4−, ambient temperature

CC=C(C)C [2-Methyl-2-Butene, 2-methyl-2-butene]
Solubility (mol C5/L Ionic Liquid) [1, 3]: 0.360 mol C5/L Ionic Liquid
Selectivity Over Isopentane [1, 4]: 10.6

C=CC=C [Butadiene, 1,3-butadiene]
Butadiene Concentration in Extracted C4 (wt %) ([2]; Butadiene Concentration in Feed 15 wt %): 37.6 wt %
Butadiene Concentration in Extracted C4 (wt %) ([2]; Butadiene Concentration in Feed 30 wt %): 43.3 wt %
Butadiene Concentration in Extracted C4 (wt %) ([2]; Butadiene Concentration in Feed 50 wt %): 74.1 wt %
Butadiene Concentration in Extracted C4 (wt %) ([2]; Butadiene Concentration in Feed 70 wt %): 82.0 wt %
Butadiene Concentration in Extracted C4 (wt %) ([2]; Butadiene Concentration in Feed 85 wt %): 91.8 wt %

CCC(C)C [Isopentane, isopentane]
Solubility (mol C5/L Ionic Liquid) [1]: 0.034 mol C5/L Ionic Liquid

C=CC(=C)C [Isoprene, isoprene]
Solubility (mol C5/L Ionic Liquid) [1, 3]: 0.611 mol C5/L Ionic Liquid
Selectivity Over 2-Methyl-2-Butene [1, 4]: 1.7
Selectivity Over Isopentane [1, 4]: 18.0
